# Measured values published in patent publication US20110034419A1, “Cardioprotective Drugs and Diagnostics for Assessing Risk of Cardiovascular Disease” (priority 2009, published 2011).
# Columns and labels:
# [1] = tested on: endothelial cell monolayers (HUVECs); assay: Electrical Cell Substrate Impedance Sensing (ECIS) assay of transendothelial electrical resistance (TEER); assay type: cell-based, human; conditions: for Inhibition of the TEER response to HDL / Inhibition of the TEER response to S1P: PTX 1 μg/ml, antagonists 10 μM; for Inhibition of the TEER response to HDL: HDL 1000 or 621 μg/ml; for Inhibition of the TEER response to S1P: S1P 833 nM or 250 nM
# Protocol: Confluent endothelial monolayers were grown under serum-free conditions until a minimal TEER plateau had been reached. The cells were then incubated with S1P or HDL in the presence or absence of PTX (A and B) or S1P1 antagonists (C and D). In A and B, S1P was used at 833 nM, HDL at 1000 μg/ml (containing 400 nM S1P) and PTX at 1 μg/ml. In C and D, S1P was used at 250 nM, HDL at 621 μg/ml (containing 250 nM S1P), the S1P1 antagonist 857390 at 10 μM and the S1P1/S1P3 antagonist VPC23019 at 10 μM. As controls, monolayers were treated with BSA-containing serum free medium (SFM) plus or minus vehicle buffer. Each of the TEER tracings shown is an average of two replicate wells and representative of three independent experiments. Impedance values were normalized by dividing each value by the level of impedance measured just prior to the addition of effectors. […]
# ECIS: Electrical cell substrate impedance sensing (ECIS) assays will be conducted essentially as described in (1). Briefly, 8W10E+ electrode arrays will be pre-coated with human fibronectin (Invitrogen, Carlsbad, Calif.) at 100 μg/ml in 0.15M NaCl, 0.01M Tris, pH 8.0. HUVECs in EGM-2 medium will be seeded into the wells at a density of 1×10^5 cells per well. Electrical resistance (impedance) will be measured every […] at a frequency of 15 kHz. For every 48 h of culture, 50% volume of medium will be replaced with fresh EGM-2. When the electrical resistance reaches a maximal plateau (−3 days) the medium will be replaced with serum-free endothelial basal medium (EBM; Lonza) containing 1× penicillin-streptomycin-glutamine (Invitrogen). Electrical resistance will be monitored until a minimal plateau is reached (˜24 h). Either HDL from CCHS subjects (depleted of albumin and apoB lipoproteins) or synthetic HDLs will be introduced into the culture medium by removing a volume corresponding to that of the HDL to be added. The maximum volume of each HDL added will not exceed 1/25 of the 400 μl volume of conditioned culture medium in each well. For experiments evaluating the effects of pertussis toxin (PTX), PTX (100 ng/ml) or the PTX buffer (50% glycerol with 50 mM Tris, 10 mM glycine, and 0.5M NaCl, pH 7.5) will be added to EBM during the final 12 h of serum starvation. S1P or HDL will then be added to the medium. Electrical resistance will be monitored through 5 h post addition of agents.
# [2] = tested on: Erk1/2 activation in HUVECs; assay: Multiplex bead array assay of Erk1/2 phosphorylation; assay type: cell-based, human; conditions: for Inhibition of HDL-induced activation of Erk1/2 / Inhibition of S1P-induced activation of Erk1/2: PTX 100 ng/ml 12 h, 3 min; for Inhibition of HDL-induced activation of Erk1/2: antagonists added 15 min before HDL (containing 200 nM S1P); for Inhibition of S1P-induced activation of Erk1/2: antagonists added 15 min before S1P (200 nM)
# Protocol: (§1) The effect of S1P and HDL on activation of Erk1/2 (A-D) and Akt (E-H) in HUVECs was determined by multiplex bead array assay. In A-D, the values for the fold difference in Erk1/2 phosphorylation were derived from the level of phosphoErk1/2 fluorescence in S1P or HDL treated cells divided by the level of phosphoErk1/2 fluorescence in control cells. In E-G, the values for the fold increase in Akt phosphorylation were derived from the level of phosphoAkt fluorescence in cells treated with S1P or HDL divided by the level of phosphoAkt fluorescence measured in control cells. The data depicted in panels A, C, E and G is based on treating HUVECs for the indicated times with 833 nM S1P or 333 μg/ml HDL (containing 133 nM S1P). The data depicted in panels B, D, F and H is based on treating HUVECs with indicated concentrations of S1P or HDL for 3 min. The level of S1P in the 3-fold dilutions of HDL tested in panel H ranged from 12-337 nM. Data are shown from a representative experiment.
# (§2) In A and B, pertussis toxin (PTX, 100 ng/ml) or the PTX buffer was added to endothelial cell basal medium (EBM) during the final 12 h of serum starvation. BSA, S1P (200 nM) or HDL (containing 200 nM S1P) were then added to the medium and allowed to incubate with the cells for 3 min. In C and D, the S1P1 antagonist 857390 or the S1P1/S1P3 antagonist or vehicle were added to the medium 15 min prior to addition of S1P or HDL and allowed to incubate with the cells for 3 min. The graphed values were derived from the level of phosphoErk1/2 or phosphoAkt fluorescence in S1P- or HDL-treated cells divided by the level of phosphoErk1/2 or phosphoAkt fluorescence in BSA treated cells. Data are shown from representative experiments, antagonists and inhibitor experiments were performed 2-4 times (e.g. PTX, n=3; S1P1 antagonist, n=4; S1P1/S1P3 antagonist, n=2). Each data point is an average from two independent wells.
# (§3) Approach: A bead-based multiplex assay will be used to determine changes in phosphorylated Erk1/2, phosphorylated Akt, and total Erk and total Akt in endothelial cells in response to treatments with HDLs from dislipidemic subjects and synthetic HDLs containing defined amounts of S1P. These assays will be conducted essentially as described by (1). Briefly, HUVECs will be seeded into 24 well dishes (Corning) at 2×10^5 cells per well and grown for 18 h in endothelial growth medium-2 (EGM-2, Lonza). The medium will then be replaced with endothelial basal medium (EBM) containing 0.1% FBS and the cells grown for 24 h. The medium will then be supplemented with HDL samples (i.e., CCHS subject serum-derived HDL freed of albumin- and apoB-containing lipoproteins) or synthetic HDLs (containing defined amounts of S1P). As described above, this will be done by removing a volume of the conditioned culture medium corresponding to that of the HDL to be added. The cells will be extracted with Bio-Plex cell lysis buffer (Bio-Rad, Hercules, Calif.) and protein concentration determined by Bio-Rad DC Protein Assay (Bio-Rad). Levels of phospho-Erk1/2, total-Erk1/2 and phospho-Akt in the extracts will be determined by multiplex bead assay using kits (Bio-Rad) and a Bioplex-200 instrument (Bio-Rad).
# Akt activation in HUVECs = assay: Multiplex bead array assay of Akt phosphorylation; assay type: cell-based, human; conditions: PTX 100 ng/ml 12 h, 3 min; for Inhibition of HDL-induced activation of Akt: antagonists added 15 min before HDL (containing 200 nM S1P); for Inhibition of S1P-induced activation of Akt: antagonists added 15 min before S1P (200 nM)
# Protocol: as §1, §2
# as §3, with “The medium will then be replaced with endothelial basal medium (EBM) containing 0.1% FBS and the cells grown for 24 h. The medium will then be supplemented with HDL samples (i.e., CCHS subject serum-derived HDL freed of albumin- and apoB-containing lipoproteins) or synthetic HDLs (containing defined amounts of S1P). As described above, this will be done by removing a volume of the conditioned culture medium corresponding to that of the HDL to be added.” left out
# lung capillary leakage = conditions: mice, lipopolysaccharide treatment; literature (Peng et al.); cited from earlier work
# dermal fibroblasts = conditions: literature (Bu et al., 2006); cited from earlier work
# [3] = tested on: endothelial cell monolayers (HUVECs); conditions: literature (Schaphorst et al.; Xu et al.); cited from earlier work
Compound,Inhibition of the TEER response to HDL [1],Inhibition of the TEER response to S1P [1],Inhibition of HDL-induced activation of Erk1/2 [2],Inhibition of S1P-induced activation of Erk1/2 [2],Inhibition of HDL-induced activation of Akt (Akt activation in HUVECs),Inhibition of S1P-induced activation of Akt (Akt activation in HUVECs),Effect on lung capillary leakage (lung capillary leakage),"Effect on transendothelial electrical resistance (TEER) ([1]; confluent endothelial monolayers in serum free medium, substance added alone)",Activation of ERK1/2 in dermal fibroblasts (dermal fibroblasts),Induction of MMP1 expression in dermal fibroblasts (dermal fibroblasts),"Effect on Erk1/2 phosphorylation ([2]; 833 nM S1P or 333 μg/ml HDL, time course)",Dose dependence of Erk1/2 activation response ([2]; 3 min treatment),Effect on endothelial barrier activity (TEER) in cultured endothelial cells [3]
pertussis toxin [PTX],completely abrogated,inhibited,inhibited,inhibited,inhibited,inhibited,,,,,,,
"CCCCCCCCCCCCC/C=C/[C@@H](O)[C@@H](N)COP(=O)(O)O [S1P, sphingosine 1-phosphate]",,,,,,,greatly reduces lung capillary leakage,dose-dependent increase in TEER,not reproduced,not reproduced,transient increase in Erk1/2 phosphorylation,dose dependent,increase endothelial barrier activity
"CCCCCCCCCCCCCCC[C@@H](O)[C@@H](N)COP(=O)(O)O [DH-S1P, dihydro-S1P]",,,,,,,,,mediate activation ERK1/2,induction of matrix metalloproteinase 1 (MMP1) expression,,,
CCCCCCCCc1cccc(NC(=O)[C@H](N)COP(=O)(O)O)c1 [VPC23019],inhibited,inhibited,inhibited,inhibited,inhibited,inhibited,,,,,,,
